Laboratory results taken from paper PMC10547880, “Synthesis and biological evaluation of novel 1,2,3-triazole hybrids of cabotegravir: identification of potent antitumor activity against lung cancer” (Frontiers in Pharmacology, 2023).
“Also recorded” adds a separate entry of the source.

Legend:
Assay type in all cases: cell-based, Human
H1299 cells [1] = experiment: Apoptosis assay, Annexin V-FITC/PI flow cytometry, H1299; conditions: H1299, 72 h
Experimental: Cells with a density of 3 × 10^5 cells per well were seeded in 6-well plates. After overnight adhesion, cells were treated with different concentrations of compounds for 72 h. Cells were harvested and stained with Annexin V-FITC and propidium iodide. Apoptotic ratio was quantified using the flow cytometry (BD Biosciences) and analyzed using the FlowJo software v10. Values were expressed as Mean ± SD, p < 0.05 was considered statistically significant. Data were performed using Graph Prim 7.0.
Apoptosis is a programmed-controlled process of cell self-destruction, and increased cell apoptosis can lead to cell death ([Wang et al., 2023]). To explore the preliminary molecular mechanisms of the synthesized compounds action, the apoptotic activity of compound 5i was evaluated by comparing the percentage of apoptotic cells with untreated cells using flow cytometry after staining with Annexin V-FITC and PI ([Chen et al., 2022a]). This assay facilitates the detection of necrotic cells (Q1, AV-/PI+), late apoptotic cells (Q2, AV+/PI+), early apoptotic cells (Q3, AV+/PI-), and live cells (Q4, AV-/PI-). H460 and H1299 cells were treated with different doses of compound 5i for 72h, and cells were collected, stained, and analyzed. The proportion of early and late apoptotic cells was added and their ratio relative to the total cells was calculated.

H460 cells [2] = experiment: Western blot of protein expression, H460; conditions: H460, 2, 4, 8 μM, 72 h
Experimental: Western blot was used to analyze protein expressions. Cells were cultured in 12-well plates and treated with different concentrations (0, 2, 4, 8 μM) of compounds for 72 h. Cell proteins were extracted using RIPA buffer with protease/phosphatase inhibitor cocktail (CST). 10%–15% sodium dodecyl sulfate polyacrylamide gel electrophoresis was used to separate proteins and nitrocellulose membranes (Millipore) was used to collected proteins. Antibodies used in western bolt were LC3 (3868s, CST), caspase 3 (9662s, CST), cyclin D (2922s, CST), cyclin E (20808s, CST), β-Catenin (9562s, CST), γH2AX (9718s, CST), PARP (46D11, CST), and β-actin (4967s, CST). Values were expressed as Mean ± SEM, p < 0.05 was considered statistically significant. Data were performed using Graph Prim 7.0.
Western blot analysis was performed to assess the protein expressions involved in cell growth and cell death processes. H460 and H1299 cells were treated with different concentrations of compound 5i, and whole cell proteins were collected for analysis. […] Autophagy has both tumor suppression and growth promotion effects in cancers, depending on the cellular context and cancer stage. On the one hand, autophagy inhibits cancer development via eliminating dysfunctional proteins and damaged mitochondria. On the other hand, autophagy can promote tumor growth by providing recycled metabolites to support cancer cell survival and growth ([Wang et al., 2023]). […] But in H1299 cells, compound 5i exerted its anticancer ability by suppressing cell division and proliferation.

H1299 cells [3] = experiment: Live/dead cell staining (Calcein-AM/PI), H1299; conditions: H1299, 5, 10, 20 μM, 24 h
Experimental: Cells with a density of 5 × 10^3 cells per well were seeded in a 96-well plate. After overnight incubation, cells were treated with different concentrations (0, 5 μM, 10 μM, 20 μM) of compounds for 24 h. The LIVE/DEAD Assay Kit was used to dye cells, and cells were observed and photographed under a fluorescent microscope. Live and Dead cell numbers were counted and the ratio of dead to living cells were calculated. Values were expressed as Mean ± SEM, p < 0.05 was considered statistically significant. Data were performed using Graph Prim 7.0.
(§1) To assess the anti-proliferative effects of compound 5i, live/dead cell staining was performed using Calcein Acetoxymethyl Ester (Calcein-AM) and Propidium Iodide (PI) dyes ([Xie et al., 2023]). Calcein-AM highlights live cells through green fluorescence emission, while PI identifies dead cells with damaged membrane integrity, producing red fluorescence. H460 and H1299 cells were treated with different concentrations (0, 5, 10 and 20 μM) of compound 5i for 24 h. After 24 h treatment, cells were stained with Calcein-AM and PI, diluted in cultured medium, and incubated for an hour in dark. Then the fluorescence was detected and photographed using a fluorescent microscope. […] In addition, we also performed plate clone formation assay ([Xu et al., 2018]) to further investigate the anti-proliferation ability of compound 5i. […]

H1299 cells [4] = experiment: Plate clone formation assay, H1299; conditions: H1299, 2-32 μM
Experimental: (§2) Cells with the density of 500 cells per well were seeded in a 6-well plate. Different concentrations (0, 2 μM, 4 μM, 8 μM, 16 μM and 32 μM) of compounds were added to cells and maintained for a 72- hour duration. And cells were cultured until the monoclonal appeared. Afterward, cells were fixed with 4% paraformaldehyde and stained by Giemsa dye. The plate clone numbers were photographed and counted using a microscope. Values were expressed as Mean ± SEM, p < 0.05 was considered statistically significant. Data were performed using Graph Prim 7.0.
as §1

H460 cells [5] = experiment: Plate clone formation assay, H460; conditions: H460, 2-32 μM, particularly 16 μM and 32 μM
Experimental: as §2, §1

H460 cells [6] = experiment: Live/dead cell staining (Calcein-AM/PI), H460; conditions: H460, 5, 10, 20 μM, 24 h
Experimental: as §1, with “Cells with a density of 5 × 10^3 cells per well were seeded in a 96-well plate. After overnight incubation, cells were treated with different concentrations (0, 5 μM, 10 μM, 20 μM) of compounds for 24 h. The LIVE/DEAD Assay Kit was used to dye cells, and cells were observed and photographed under a fluorescent microscope. Live and Dead cell numbers were counted and the ratio of dead to living cells were calculated. Values were expressed as Mean ± SEM, p < 0.05 was considered statistically significant. Data were performed using Graph Prim 7.0. To” for “To”

## COc1c2n(cc(C(=O)Nc3cccc(-c4cn(-c5ccccc5OC(F)(F)F)nn4)c3)c1=O)CC1OCC(C)N1C2=O (stereo not drawn) [Compound 5i]
H1299 cells [1]
  apoptotic cells (early + late): no significant change or even a decrease
H460 cells [2]
  Cyclin D expression: no significant differences
  Cyclin E expression: no significant differences
  LC3 expression: pronounced elevation; also recorded: significant increase
  PARP expression: no significant differences
  caspase3 expression: no significant differences
  β-catenin expression: no significant differences
  γ-H2AX expression: no significant differences
H1299 cells [3]
  live and dead cell numbers: decrease in live cell numbers alongside a substantial rise in dead cells
H1299 cells [4]
  number of cell clones: reduction in the number of cell clones
H460 cells [5]
  number of cell clones: decreased
H460 cells [6]
  live and dead cell numbers: significantly decreased the number of live cells and increased the number of dead cells
